For assay [1], the system named is thromboxane synthetase. Description: Inhibition of Thromboxane A2 biosynthesis in platelet rich plasma. It is filed as cell-based. Conditions: at 1 μg/ml. As to the method: In this system, 6-(3-pyridylmethyl)indene-2-carboxylic acid inhibited thromboxane synthetase 95% as compared to control at 1 μg/ml.
Assay [2] has as its target T1, TXA2 synthetase (Homo sapiens, UniProt P24557).
T1 construct: from tissue; host or cells: HPM (read as human platelet microsomes)
T1 sequence (P24557 1-533): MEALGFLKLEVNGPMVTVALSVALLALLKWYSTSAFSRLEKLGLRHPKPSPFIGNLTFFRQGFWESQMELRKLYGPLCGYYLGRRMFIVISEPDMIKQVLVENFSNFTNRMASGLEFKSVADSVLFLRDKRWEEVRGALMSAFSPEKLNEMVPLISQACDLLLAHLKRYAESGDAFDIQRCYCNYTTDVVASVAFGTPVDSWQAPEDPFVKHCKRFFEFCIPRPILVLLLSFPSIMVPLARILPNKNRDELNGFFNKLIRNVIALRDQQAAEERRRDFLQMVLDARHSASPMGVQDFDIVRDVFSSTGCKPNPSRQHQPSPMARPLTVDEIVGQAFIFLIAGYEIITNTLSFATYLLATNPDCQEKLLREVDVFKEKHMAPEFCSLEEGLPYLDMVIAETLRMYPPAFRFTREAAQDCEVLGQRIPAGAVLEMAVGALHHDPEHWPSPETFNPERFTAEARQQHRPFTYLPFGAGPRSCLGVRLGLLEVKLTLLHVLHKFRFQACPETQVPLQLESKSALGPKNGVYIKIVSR
Description: TXA2 synthetase inhibition: TXA2 produced by mixing PGH2 and HPM, measured by response of the rabbit aorta. Type of assay: biochemical. Conditions: test compound added to HPM 5 minutes before mixing with PGH2, approximate. As to the method:
Potential inhibitors were tested by comparing the response of the rabbit aorta to the amount of TXA2 produced by mixing PGH2 and HPM without the test compound in the reaction medium and then the amount of TXA2 produced when the test compound was added to the HPM 5 minutes before the HPM was mixed with PGH2. […] For a discussion of TXA2 synthetase inhibition testing see, e.g., R. Gorman, supra.

Each structure is given as a SMILES string. pIC50: −log10 of the molar value. Structures can show the parent of a compound that is named as a salt. Where two headings read alike, the source gives them in different places. Where only a bound is given, the exact number is not on record here.

Take `O=C(O)C1=Cc2ccc(Cc3cccnc3)cc2C1` [6-(3-Pyridylmethyl)indene-2-carboxylic Acid]: in assay [1], the “inhibited thromboxane synthetase as compared to control” value turned out to be 95%.
Regarding `O=C(O)c1cc2cc(NCc3cccnc3)ccc2[nH]1` [Sodium Salt], the pIC50 in assay [2] (read-out: approximate ED50 (lower bound)) was < 6.46; in assay [2] (read-out: approximate ED50 (upper bound)), > 5.46.

Source of the values: US4767865A, “3'-pyridinylalkylinden- and 3'-pyridinylalkylindol-2-carboxylic acids and analogs” (The Upjohn Company, priority 1987, dated 1988).
